Three compounds from US9415067B2, “Genetic test for liver copper accumulation in dogs and low copper pet diet” (Mars, Inc., priority 2009, dated 2016) can be followed below.

Data set [1] has as its system canine dermal fibroblast cells ATP7A^C/C, ATP7A^C/T, ATP7A^T/T. The data set is described as follows: 64Cu incorporation and efflux (washout) in canine primary dermal fibroblasts, gamma counting. The format is cell-based, dog. To be noted: 100 μM. On the procedure: FIGS. 7A and 7B show copper isotope measurements in canine primary fibroblast cells. Copper isotope (64Cu) measurements in ATP7A^C/C, ATP7A^C/T and ATP7A^T/T cells after (A) 24 h or 48 h incubation with 10 μM, 50 μM and 100 μM 64Cu, or (B) 24 hrs incubation, followed by extensive washing and incubation in non copper isotope media for 2 h. Gamma-counts were corrected for cell culture conditions by means of a protein and MTS assay. Data points for 24 hr incubation represent the mean+/−SEM from two independent experiments performed in duplicate and expressed as counts per minute (cpm) of total cell protein. Other data points represent mean+/−SEM from one experiment in duplicate.
The canine dermal fibroblast cells CDFIB44, CDFIB62 and CDFIB111 were isolated from euthanized female Labradors. Blood samples, taken prior to euthanizing were subject to the genetic test of the invention to ascertain increased risk to the disease. CDFIB111 was homozygous for the ATP7A SNP and CDFIB62 was heterozygote. […] was used as a control. […]
For copper treatment, cells were incubated in 10, 50, and 100 μM copper for 24 or 48 h. […] Emission was measured in individual tubes containing media, washing steps, or lysate in a Packard B5003 gamma counter (Packard BioScience Benelux, Groningen, the Netherlands) between 450 and 800 keV for 2 minutes. […] Cells were then analysed for copper as described above. Copper accumulation was normalized to the protein concentration of the cell lysate (quantified using a Bio Rad Protein Assay Kit, Bio Rad) and an MTS colorimetric assay (3-[4,5-dimethylthiazol-2-yl]-5-[3-carboxymethoxyphenyl]-2-[4-sulfophenyl]-2H-tetrazolium) (Promega) was run in parallel. This quantitative assay detects living but not dead cells. The absorbance at 490 nm (test wavelength) and at 650 nm (reference wavelength) was measured using an enzyme-linked immunosorbent assay microplate reader (Bio-Rad); wells containing culture medium but no cells served as blanks. […]

In data set [2] the test system is hepatic copper accumulation. As to the kind of experiment: Diet trial with randomized placebo-controlled zinc application: quantitative hepatic copper by neutron activation analysis of liver biopsies. Format: in vivo, dog. The protocol:
All dogs were fed the same diet. […] The pharmacist was the only person aware of group allocations until completion of the study. Hepatic copper concentrations and histopathology were assessed along with clinical examinations and blood-work before and after treatment for a mean of 8 months (range 5-13), and 16 months (range 12-25). Plasma zinc concentrations were measured at additional time points during treatment.
All dogs had completed their treatment with penicillamine prior to the start of this study. A medical history was obtained from all dogs and a physical examination was performed. […] Two biopsies were fixed in 10 percent neutral buffered formalin, and one biopsy was stored in a copper-free container for quantitative copper determination.
A quantitative assay for copper in liver tissue was performed by neutron activation analysis, according to a protocol described by Teske et al, using the facilities described by Bode (Bode, P. (1990) Journal of Trace and Microprobe Techniques 8: 139; Teske et al. (1992) Vet Rec 131: 30-32). Quantitative copper concentrations were measured in lyophilised liver biopsies and reported in mg/kg dry weight liver.
All dog owners were provided with the same specially manufactured diet. […] Metabolizable energy (measured according to Association of American Feed Control Officials protocol): 1650 kcal/kg as fed). […]

Data set [3] deals with hepatic copper accumulation. The data set is described as follows: Example 7: hepatic copper before penicillamine, after penicillamine and after diet. The format is in vivo, dog. To be noted: all dogs fed the diet of Example 6, data not shown. The protocol: FIG. 3 illustrates the effectiveness of the diet of the invention on hepatic copper concentrations (mg/kg dry weight) in 18 Labrador Retrievers compared with the effect of penicillamine alone. The key to the x-axis is as follows: 1=pre-penicillamine, 2=post-penicillamine/pre-food, 3=post-food. […] The dotted line represents the normal level of hepatic copper for adult dogs.
During an investigation of the effect of zinc on hepatic copper concentration, hepatic copper concentration was measured in 18 pure-bred Labrador Retrievers. Half of the dogs were provided with a supplement of zinc and the other half were provided with a placebo. All of the dogs were fed the diet of Example 6. Hepatic copper 25 concentration was measured using the method of Example 6 at 3 time points: (1) before treatment with penicillamine; (2) after treatment with penicillamine but before treatment with the diet of Example 6; and (3) after the diet treatment.

The nature of data set [4]: Pharmacokinetic study of oral zinc gluconate, plasma zinc by atomic absorption spectrometry. Format: in vivo. To be noted: mean of dog 1 and dog 2. On the procedure:
Two unrelated nine-year old, healthy Labrador Retrievers (1 female and 1 male) were used in a pharmacokinetic study. Food was withheld for a 12-hour period prior to oral administration of zinc, and during the initial 6-hour testing period. Water was freely available. […] Heparinized blood samples (4 ml) were collected from the jugular vein before dosing (time 0) and 15, 30, 45, 60, 90, 120 minutes, and 4, 8, 12 and 24 hours after application of the drug. Plasma was stored at −20° C. until analysis for zinc using atomic absorption spectrometry.
In addition the test was used to detect a difference between group-1 and group-2 before the study, at recheck-1, and at recheck-2 (significance level p<0.05).

[5] abbreviates: 24 h incubation, 2 h of washout.

As for `[64Cu]` [Cu64], in data set [1] (setting [5]), the “isotope retained by ATP7A^C/C cells” value is “approximately 45%” and the “isotope retained by ATP7A^T/T cells” value is approximately 90%. In addition, the “increase in incorporation of copper in ATP7A^T/T and ATP7A^C/T cells compared to ATP7A^C/C cells” value in data set [1] (after 24 h and 48 h) is on record as “approximately two-fold”.

For the compound `CC(C)(S)[C@@H](N)C(=O)O` [penicillamine], the “mean hepatic copper concentration after completion of treatment with penicillamine” value in data set [2] (24 Labradors at the start of the diet trial, reference range 400 mg/kg dry weight) worked out at 894 mg/kg dry weight.

Turning to zinc gluconate, the “difference between copper levels in dogs treated with zinc and with the placebo” value in data set [3] is recorded as “no significant difference”. In addition, the “effect of adjunctive zinc on the de-coppering effect of the diet” value in data set [2] (diet + zinc gluconate 7.5 mg/kg PO BID versus diet + placebo) is given as “did not amplify the de-coppering effect”. For the same compound, in data set [4], the “apparent oral clearance (CL/F)” value worked out at 2.116898 mL/min/kg.
